Test results reported in patent US11957680B2, “Pyruvate kinase activators for use in treating blood disorders” (Agios Pharmaceuticals, Inc., priority 2017, dated 2024).

What was measured:
wild type PKR [1] = target: T1, wild type PKR (Homo sapiens, UniProt P30613); experiment: PKR (wild type) enzyme AC50 assay, LDH/NADH-coupled, absorbance at 340 nm; assay type: biochemical; details: for EC50: Table 4, AC50, enzyme assay, read-out: PKR WT; for AC50: Table 2, enzyme assay, read-out: PKR WT AC50
Method in brief: (§1)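 LDH/NADH-coupled read-out at 340 nm after ADP (0.2-1.65 mM) addition at room temperature. Beforehand, wild-type, K410E or R510Q human PKR (40-400 ng/well) sat 60 min with compound (top 100 μM, 3-fold, 11 points) plus PEP 0.1-0.5 mM, 180 μM NADH in 50 mM Tris pH 7.5, 100 mM KCl, 5 mM MgCl2, 1 mM DTT, 0.03% BSA.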

PKR R510Q = PKR R510Q (Homo sapiens, UniProt P30613, R510Q); experiment: PKR mutant assay (R510Q), AC50, LDH/NADH-coupled, absorbance at 340 nm; assay type: biochemical; details: for EC50: Table 4, AC50, enzyme assay, read-out: PK R510Q; for AC50: read-out: PK R510Q AC50
Method in brief: as §1

PKR K410E = PKR K410E (Homo sapiens, UniProt P30613, K410E); experiment: PKR mutant assay (K410E), AC50, LDH/NADH-coupled, absorbance at 340 nm; assay type: biochemical; details: for EC50: Table 4, AC50, enzyme assay; for AC50: Table 2, enzyme assay
Method in brief: as §1

wild type PKR [2] = target: T1, wild type PKR; experiment: Cell based ATP assay in purified red blood cells (Cell-Titer-Glo); set-up: endogenous in cells; host or cells: purified red blood cells from healthy volunteers; details: overnight at 37° C., ATP levels; for AC50 / Cell based ATP assay AC50: Table 2, RBCs
Method in brief: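 ATP levels were quantified by Cell-Titer-Glo after overnight 37 °C exposure of cells to compound (1:4 dilution series, 0.1% DMSO final). The cells were human erythrocytes, filter-purified to remove leukocytes and plated at 1×10^7 cells/mL in AGAM medium.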

T1 sequence (P30613 whole entry): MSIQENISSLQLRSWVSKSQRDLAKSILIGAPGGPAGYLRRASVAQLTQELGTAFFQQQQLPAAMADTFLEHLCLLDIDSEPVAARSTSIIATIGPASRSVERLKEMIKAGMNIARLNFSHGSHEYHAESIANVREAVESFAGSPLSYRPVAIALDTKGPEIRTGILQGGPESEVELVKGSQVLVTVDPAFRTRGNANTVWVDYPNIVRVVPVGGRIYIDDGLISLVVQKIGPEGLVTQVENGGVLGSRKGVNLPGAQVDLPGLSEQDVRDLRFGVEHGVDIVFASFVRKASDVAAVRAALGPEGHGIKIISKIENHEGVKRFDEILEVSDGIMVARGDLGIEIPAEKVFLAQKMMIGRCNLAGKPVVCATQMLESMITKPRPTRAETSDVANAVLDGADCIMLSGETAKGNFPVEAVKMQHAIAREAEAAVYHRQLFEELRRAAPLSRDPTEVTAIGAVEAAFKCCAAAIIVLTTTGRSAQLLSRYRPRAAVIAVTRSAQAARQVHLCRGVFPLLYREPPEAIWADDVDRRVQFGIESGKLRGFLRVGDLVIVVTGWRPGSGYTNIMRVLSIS
PKR K410E, sequence (P30613 whole entry K410E): as the sequence (P30613 whole entry) above, with K410E counted along it
PKR R510Q, sequence (P30613 whole entry R510Q): as the sequence (P30613 whole entry) above, with R510Q counted along it

| SMILES | EC50 (wild type PKR [1]) [nM] | EC50 (PKR R510Q) [nM] | EC50 (PKR K410E) [nM] | EC50 (wild type PKR [2]; Table 4, AC50, RBCs) [nM] | AC50 (wild type PKR [1]) [nM] | AC50 (PKR R510Q; Table 2, enzyme assay) [nM] | AC50 (PKR K410E) [nM] | AC50 (wild type PKR [2]) [nM] | PK R510Q AC50 (PKR R510Q; Table 2, enzyme assay) | Cell based ATP assay AC50 (wild type PKR [2]) | Cell based ATP assay (wild type PKR [2]; Table 4, AC50, RBCs) |
| --- | --- | --- | --- | --- | --- | --- | --- | --- | --- | --- | --- |
| Cn1c2nc(Cc3cc[nH]n3)sc2c2cnn(Cc3ccc4[nH]ncc4n3)c(=O)c21 [Compound 280] | < 300 | < 300 | < 300 | ≤ 1000 |  |  |  |  |  |  |  |
| Cn1c2nc(SCc3ccccc3)sc2c2cnn(Cc3cccc4[nH]ncc34)c(=O)c21 [Compound 121] |  |  |  |  | 301 to 800 | 301 to 800 | > 800 | > 1000 |  |  |  |
| Cn1c2nc(Cc3cccc(C(N)=O)c3)sc2c2cnn(Cc3cccc4[nH]ncc34)c(=O)c21 [Compound 100] |  |  |  |  | < 300 | < 300 | < 300 | ≤ 1000 |  |  |  |
| Cn1c2nc(Cc3cccc4cn[nH]c34)sc2c2cnn(Cc3cc[nH]n3)c(=O)c21 [Compound 241] | < 300 | < 300 | < 300 | ≤ 1000 |  |  |  |  |  |  |  |
| Cc1nc2c(s1)c1cnn(CO)c(=O)c1n2C [Compound 21] |  |  |  |  | > 800 |  | > 800 |  | No Fit | No Fit |  |
| Cn1c2nc(Cc3cc[nH]n3)sc2c2cnn(Cc3ccc4nc[nH]c4n3)c(=O)c21 [Compound 381] | < 300 | < 300 | < 300 | ≤ 1000 |  |  |  |  |  |  |  |
| CC(c1ccccc1)c1nc2c(s1)c1cnn(Cc3cccc4[nH]ncc34)c(=O)c1n2C (stereo not drawn) [Compound 119] |  |  |  |  | < 300 | < 300 | < 300 | ≤ 1000 |  |  |  |
| Cn1c2nc(C(N)c3ccccc3)sc2c2cnn(Cc3cccc4[nH]ncc34)c(=O)c21 (stereo not drawn) [Compound 136] |  |  |  |  | < 300 | < 300 | < 300 | ≤ 1000 |  |  |  |
| Cn1c2nc([S+](C)[O-])sc2c2cnn(Cc3ccnc(N)n3)c(=O)c21 (stereo not drawn) [Compound 97] |  |  |  |  | > 800 | > 800 | > 800 | > 1000 |  |  |  |
| Cn1c2nc(C(N)=O)sc2c2cnn(Cc3cccc4[nH]ncc34)c(=O)c21 [Compound 82] |  |  |  |  | < 300 | 301 to 800 | 301 to 800 | > 1000 |  |  |  |
| Cn1c2nc(Cc3cc[nH]c(=O)c3)sc2c2cnn(Cc3cccc4[nH]ncc34)c(=O)c21 [Compound 200] | < 300 | > 800 | < 300 | ≤ 1000 |  |  |  |  |  |  |  |
| Cn1c2nc(Cc3cscn3)sc2c2cnn(Cc3cccc4[nH]ncc34)c(=O)c21 [Compound 227] | < 300 | < 300 | < 300 | ≤ 1000 |  |  |  |  |  |  |  |
| Cn1c2nc(Cc3cn[nH]c3)sc2c2cnn(Cc3cccc4[nH]ncc34)c(=O)c21 [Compound 184] |  |  |  |  | < 300 | < 300 | < 300 | ≤ 1000 |  |  |  |
| COc1cccc(Cn2ncc3c4sc(C(=O)c5cccc(O)c5)nc4n(C)c3c2=O)c1 [Compound 55] |  |  |  |  | 301 to 800 | 301 to 800 | > 800 | > 1000 |  |  |  |
| Cn1c2nc(Cc3ccc[nH]c3=O)sc2c2cnn(Cc3cccc4[nH]ncc34)c(=O)c21 [Compound 228] | < 300 | < 300 | < 300 | ≤ 1000 |  |  |  |  |  |  |  |
| COc1cccc(Cn2ncc3c4scnc4n(C)c3c2=O)c1 [Compound 19] |  |  |  |  | 301 to 800 | < 300 | 301 to 800 | > 1000 |  |  |  |
| Cn1c2nc(C(N)=O)sc2c2cnn(Cc3csc(N)n3)c(=O)c21 [Compound 146] |  |  |  |  | 301 to 800 | 301 to 800 | < 300 | ≤ 1000 |  |  |  |
| Cc1nc2c(s1)c1cnn(Cc3cccc(C(=O)O)c3)c(=O)c1n2C [Compound 11] |  |  |  |  | > 800 | > 800 | > 800 |  |  | No Fit |  |
| Cn1c2nc(C(C)(O)c3ccccc3)sc2c2cnn(Cc3cccc4[nH]ncc34)c(=O)c21 (stereo not drawn) [Compound 126] |  |  |  |  | < 300 | < 300 | < 300 | ≤ 1000 |  |  |  |
| Cn1c2nc(Cc3cnoc3)sc2c2cnn(Cc3cccc4[nH]ncc34)c(=O)c21 [Compound 185] |  |  |  |  | > 800 | 301 to 800 | 301 to 800 | > 1000 |  |  |  |
| Cn1c2nc(C(N)=O)sc2c2cnn(Cc3cccc(N)n3)c(=O)c21 [Compound 158] |  |  |  |  | < 300 | < 300 | < 300 | ≤ 1000 |  |  |  |
| Cn1c2nc(Cc3cccc(O)c3)sc2c2cnn(Cc3cccc4[nH]ncc34)c(=O)c21 [Compound 89] |  |  |  |  | < 300 | < 300 | < 300 | ≤ 1000 |  |  |  |
| Cc1nc2c(s1)c1cnn(Cc3c[nH]cn3)c(=O)c1n2C [Compound 42] |  |  |  |  | > 800 | > 800 | > 800 | > 1000 |  |  |  |

| SMILES | EC50 (wild type PKR [1]) [nM] | EC50 (PKR R510Q) [nM] | EC50 (PKR K410E) [nM] | EC50 (wild type PKR [2]; Table 4, AC50, RBCs) [nM] | AC50 (wild type PKR [1]) [nM] | AC50 (PKR R510Q; Table 2, enzyme assay) [nM] | AC50 (PKR K410E) [nM] | AC50 (wild type PKR [2]) [nM] | PK R510Q AC50 (PKR R510Q; Table 2, enzyme assay) | Cell based ATP assay AC50 (wild type PKR [2]) | Cell based ATP assay (wild type PKR [2]; Table 4, AC50, RBCs) |
| --- | --- | --- | --- | --- | --- | --- | --- | --- | --- | --- | --- |
| Cn1c2nc(C(C)(O)c3cc[nH]n3)sc2c2cnn(Cc3cccc4[nH]ncc34)c(=O)c21 (stereo not drawn) [Compound 162] |  |  |  |  | < 300 | < 300 | < 300 | ≤ 1000 |  |  |  |
| Cn1c2nc(Cc3ccc4[nH]ncc4c3)sc2c2cnn(Cc3cccc4[nH]ncc34)c(=O)c21 [Compound 154] |  |  |  |  | < 300 | < 300 | < 300 | ≤ 1000 |  |  |  |
| Cn1c2nc([S+](C)[O-])sc2c2cnn(Cc3ccnc(N)c3)c(=O)c21 (stereo not drawn) [Compound 78] |  |  |  |  | > 800 | > 800 | > 800 | ≤ 1000 |  |  |  |
| Cn1c2nc(Cc3n[nH]cc3F)sc2c2cnn(Cc3cccc4[nH]ncc34)c(=O)c21 [Compound 236] | < 300 | < 300 | < 300 | ≤ 1000 |  |  |  |  |  |  |  |
| Cn1c2nc(Cc3cccc(=O)[nH]3)sc2c2cnn(Cc3cccc4[nH]ncc34)c(=O)c21 [Compound 170] |  |  |  |  | < 300 | < 300 | < 300 | ≤ 1000 |  |  |  |
| Cc1nc2c(s1)c1cnn(Cc3cccc(N)c3)c(=O)c1n2C [Compound 14] |  |  |  |  | < 300 | < 300 | < 300 | ≤ 1000 |  |  |  |
| C#CCn1ncc2c3sc(Cc4ccccn4)nc3n(C)c2c1=O [Compound 404] | < 300 | < 300 | < 300 | ≤ 1000 |  |  |  |  |  |  |  |
| CC(c1ccccc1)c1nc2c(s1)c1cnn(Cc3cccc4c3cnn4C)c(=O)c1n2C (stereo not drawn) [Compound 120] |  |  |  |  | 301 to 800 | 301 to 800 | 301 to 800 | ≤ 1000 |  |  |  |
| Cn1c2nc(Cc3cccc(S(N)(=O)=O)c3)sc2c2cnn(Cc3cccc4[nH]ncc34)c(=O)c21 [Compound 155] |  |  |  |  | 301 to 800 | < 300 | < 300 | ≤ 1000 |  |  |  |
| Cn1c2nc(NC(=O)Cc3cc[nH]n3)sc2c2cnn(Cc3cccc4[nH]ncc34)c(=O)c21 [Compound 180] |  |  |  |  | > 800 | > 800 | > 800 | > 1000 |  |  |  |
| Cn1c2nc(Cc3n[nH]cc3C(F)(F)F)sc2c2cnn(Cc3cccc4[nH]ncc34)c(=O)c21 [Compound 172] |  |  |  |  | > 800 | > 800 | > 800 | > 1000 |  |  |  |
| COc1cccc(Cn2ncc3c4sc(C)nc4n(C)c3c2=O)c1 [Compound 1] |  |  |  |  | < 300 | < 300 | < 300 | ≤ 1000 |  |  |  |
| COc1cccc(Cn2ncc3c4sc(I)nc4n(C)c3c2=O)c1 [Compound 40] |  |  |  |  | 301 to 800 | < 300 | 301 to 800 | > 1000 |  |  |  |
| Cn1c2nc(Cc3cc[nH]n3)sc2c2cnn(Cc3ccc4c(n3)NC(=O)C4)c(=O)c21 [Compound 387] | 301 to 800 | < 300 | < 300 | > 1000 |  |  |  |  |  |  |  |
| Cn1c2nc(Cc3csc(CO)n3)sc2c2cnn(Cc3cccc4[nH]ncc34)c(=O)c21 [Compound 168] |  |  |  |  | < 300 | < 300 | < 300 | ≤ 1000 |  |  |  |
| Cn1c2nc(Cn3ccnc3)sc2c2cnn(Cc3cccc(C(N)=O)c3)c(=O)c21 [Compound 390] | > 800 | > 800 | > 800 |  |  |  |  |  |  |  | No Fit |
| COC(=O)c1nc2c(s1)c1cnn(Cc3cccc(OC)c3)c(=O)c1n2C [Compound 43] |  |  |  |  | > 800 | 301 to 800 | > 800 |  |  | No Fit |  |
| COc1cccc(Cn2ncc3c4sc([S+]([O-])c5ccccc5)nc4n(C)c3c2=O)c1 (stereo not drawn) [Compound 35] |  |  |  |  | 301 to 800 | 301 to 800 | 301 to 800 | > 1000 |  |  |  |
| COc1cccc(Cn2ncc3c4sc(C(C)O)nc4n(C)c3c2=O)c1 (stereo not drawn) [Compound 52] |  |  |  |  | < 300 | < 300 | < 300 | ≤ 1000 |  |  |  |
| Cn1c2nc(Cc3cncnc3)sc2c2cnn(Cc3cccc4[nH]ncc34)c(=O)c21 [Compound 153] |  |  |  |  | > 800 | > 800 | > 800 | ≤ 1000 |  |  |  |
| Cn1c2nc(Cc3cc[nH]n3)sc2c2cnn(Cc3ccc4cc(Cl)[nH]c4n3)c(=O)c21 [Compound 388] | < 300 | < 300 | < 300 | ≤ 1000 |  |  |  |  |  |  |  |
| CC(=O)c1cccc(Cn2ncc3c4sc(C)nc4n(C)c3c2=O)c1 [Compound 56] |  |  |  |  | 301 to 800 | < 300 | < 300 | > 1000 |  |  |  |
